Here are results for 1 compound from US20240208895A1, “BRANCHED-CHAIN AMINO ACID DERIVATIVES TO TREAT DISEASE” (INTRABIO LTD., priority 2021, published 2024).

Data set [1] in a line: physchem. Format: physicochemical. The text has this: The physiochemical parameters of L-leucine were compared with N-acetyl-L-leucine. […] Log P is the octanol:water partition coefficient for the neutral form of a compound. In contrast, log D considers the ionization state of a molecule in aqueous (biological) solution resulting from basic groups gaining a proton and acidic groups losing a proton, and as such is better correlated with passive diffusion across membranes.

The target of data set [2] is T1, monocarboxylate transporter (MCT1) (Homo sapiens, UniProt P53985).
T1 sequence (P53985 1-500): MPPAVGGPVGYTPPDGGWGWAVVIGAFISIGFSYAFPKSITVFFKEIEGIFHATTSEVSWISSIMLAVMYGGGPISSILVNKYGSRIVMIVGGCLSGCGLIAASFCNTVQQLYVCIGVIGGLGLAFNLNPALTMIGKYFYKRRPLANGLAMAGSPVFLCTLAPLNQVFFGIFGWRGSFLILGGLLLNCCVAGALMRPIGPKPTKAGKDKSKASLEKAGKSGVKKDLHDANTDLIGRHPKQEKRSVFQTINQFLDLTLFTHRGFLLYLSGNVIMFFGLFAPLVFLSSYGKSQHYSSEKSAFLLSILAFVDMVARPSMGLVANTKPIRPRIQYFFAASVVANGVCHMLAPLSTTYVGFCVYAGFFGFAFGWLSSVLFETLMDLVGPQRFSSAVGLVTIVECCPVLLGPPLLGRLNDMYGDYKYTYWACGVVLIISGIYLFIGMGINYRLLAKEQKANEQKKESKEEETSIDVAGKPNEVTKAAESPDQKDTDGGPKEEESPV
Conditions: read-out: Km, uptake by MCT1; uptake 1 min, room temperature. As to the method: The known probe substrates used as positive controls are 3 μM chlorothiazide for OAT1, 2 μM estrone-3-sulfate for OAT3, 10 μM gabapentin for LAT1, 50 μM Gly-Sar for PepT1, 500 μM thiophene-2-glyoxylic acid for MCT1.
Enzyme kinetic data for uptake and metabolism of a Compound of the Disclosure is analysed by fitting the Michaelis-Menten equation to the data. V0=Vmax[S]/Km+[S], where V0 is initial velocity, [S] is substrate concentration, Vmax is maximum velocity and Km is substrate concentration at half Vmax. All fitting is performed using GraphPad Prism 8.4 software (GraphPad Software Inc). No weighting scheme is applied.

Data set [3] deals with T2, human transporter MCT1 (Homo sapiens, UniProt P53985).
T2 construct: expressed in transfected cells; host or cells: MDCK-II
T2 sequence (P53985 1-500): T1 sequence (P53985 1-500)
In words: Human MCT1-mediated transport in MDCK-II cells (Example 9). Format: cell-based. The settings on record: MDCK-II cells expressing human MCT1, pH 5.5, 1 minute, normalized to Vmax of thiophene-2-glyoxylic acid. As to the method: Representative Compounds of the Disclosure are tested in (i) MDCK-II cells expressing human transporter MCT1; and (ii) MDCK-II cells transfected with a control vector (GFP) as control cells for human transporter MCT1. 2-Thiophene-glyoxylic acid (TPGA) is the positive control for transport.
• 1. A stock solution is prepared with the test article (Compound of the Disclosure) in DMSO or in HBSS-Bis-Tris. • 2. Final assay solutions of probe substrate or test article contain 0.5% (v/v) DMSO (vehicle control). • 3. Test article concentrations are 10 μM, 30 μM, 100 μM, 300 μM, 1000 μM, 3000 μM, and 10000 μM.
MDCK-II cells are maintained in DMEM with low glucose and 10% FBS. Cells passages up to 40 are seeded at 60K±10K cells/well on 96-well, transwell membrane plates approximately 24 hours before transfection. Transport assays are carried out approximately 48 hours after transfection.
• 1. Test system: • a. Test system: 96-well cell culture plate with wells containing a monolayer of MDCK-II cells grown on a permeable support and a corresponding 96-well receiver tray. Cell plates are maintained at 37° C. in 5% CO2 atmosphere prior to initiation of the transport experiment. • b. Pre-incubation is conducted in HBSS, pH 7.4. Transport experiments are conducted in HBSS with Bis-Tris, pH 5.5, without phenol red. Pre-incubation and incubation are conducted at ambient temperatures. • c. Each condition is run in triplicate wells. • d. […] The result from the control cells is used to correct for substrate permeation by routes other than the transporter being investigated in the study. • 2. Prepare the 96-well plate as follows: • a. Wash the basal side of the culture plate insert with HBSS three times. After the final wash, blot the basal side of the wells and keep this side dry. • b. Wash the culture plate wells with HBSS three times. The wells of the culture plate serve as the apical compartment. • 3. Aspirate the final wash from the culture plate. The wells of the culture plate serve as the apical compartment. Add 100 μL of HBSS pH 7.4 pre-incubation buffer containing vehicle to the apical compartments. • 4. Incubate the plates with orbital shaking at approximately 60 RPM for the pre-incubation time specified in Table 1 of this protocol. • 5. Aspirate the pre-incubation buffer from the apical compartment of the plates. Add 100 μL of the experimental buffer that is prepared as follows and maintained at ambient temperatures. • a. For the probe substrate transport assay, the HBSS with Bis-Tris, pH 5.5 in each well contains the probe substrate at 500 μM (positive control for transport) and vehicle control. • b. For the test article assays, the HBSS with Bis-Tris, pH 5.5 in each well contains the test article at 10 μM, 30 μM, 100 μM, 300 μM, 1000 μM, 3000 μM, and 10000 μM. • 6. Incubate at ambient temperature with orbital shaking at approximately 60 RPM for the incubation time of 1 minute. • 7. […]
• 1. The amount of radiolabeled probe substrate will be quantified with radiometric detection on a 1450 Microbeta (Perkin-Elmer). • 2. The amount of non-radiolabeled probe substrate or test article will be quantified by LC-MS/MS. • 3. […] For uptake assays, the net transporter-mediated uptake rate (V) of the substrate by each SLC transporter will be calculated as follows:
[formula] • 5. For transport kinetics assessment, Km and Vmax will be calculated by non-linear regression using the Michaelis-Menten equation. • 6. […]

Turning to `CC(=O)N[C@@H](CC(C)C)C(=O)O` [N-acetyl-L-leucine], the logD – broadly, lipophilicity at a set pH, counting ionised and neutral species – in data set [1] was -2.54. For the same compound, the Km (in general, the concentration of substrate that gives half-maximal velocity) in data set [2] was 3000 µM. Besides, in data set [3], the “uptake mediated by MCT1” value is recorded as “transported”.
